Reference: US9006205B2, “Antisense oligonucleotides against neutral sphingomyelinase and neutral sphingomyelinase inhibitor GW4869 for degenerative neurological disorders” (Rush University Medical Center, priority 2011, dated 2015)

Key:
[1] = system: primary human neurons; assay: MTT metabolism of neurons in astrocyte-neuron trans-well; format: cell-based
Description: (§1) Primary human astrocytes were grown to confluency on inserts. After 24 h of stimulation by the combination of Aβ (1 μM) and IL-Iβ (10 ng/ml), inserts were washed thrice with HBSS and then placed onto the wells containing primary human neurons. Therefore, in this trans-well model, although neurons and astrocytes face each other, they are separable and the effect of soluble factors released from activated astrocytes on neurons can be studied allowing analysis of neuronal and glial populations separately.
Mitochondrial activity was measured with the 3-(4,5-dimethylthiazol-2-yl)-2,5-diphenyltetrazolium bromide (MTT) assay (Sigma). The cells were grown on 24-well culture plates with 500 μl of medium and treated with various reagents according to the experimental design. At the end of the treatment period, 300 μl of culture medium were removed from each well, and 20 μl of MTT solution (5 mg/ml) were added and incubated for 1 h.
(§2) Primary human neurons were incubated with antisense (ASO) and scrambled oligonucleotides (ScO) against N-SMase (A) and A-SMase (FIG. 2B). After 48 h, neurons were analyzed for protein expression of N-SMase and A-SMase. In FIG. 2C, primary human astrocytes seeded in inserts were stimulated by the combination of Aβ and IL-1β as described above. […] After 6 h of treatment with activated astrocytes, apoptotic events in neurons were detected by TUNEL. In FIG. 2D, TUNEL-positive cells were counted manually in four different images of each of three coverslips by three individuals blinded to the experiment. […] Values obtained from the control group served as 100%, and data obtained in other groups were calculated as percent of control accordingly. […]
(§3) In FIGS. 3A-3E, primary human astrocytes seeded in inserts were stimulated by the combination of Aβ and IL-Iβ as described above. […] In FIG. 3A, after 1 h, activity of N-SMase was measured in total cell extracts of neurons as described above. […] Values obtained from the control group served as 100%, and data obtained in other groups were calculated as percent of control accordingly.

[2] = system: primary human neurons; assay: LDH release from neurons in astrocyte-neuron trans-well; format: cell-based
Description: as §1
The activity of lactate dehydrogenase (LDH) was measured using the direct spectrophotometric assay using an assay kit from Sigma.
as §2, with “experiment. In FIG. 2E, after 18 h of stimulation, cell viability was examined by the metabolism of MTT and the release of LDH.” for “experiment.”
as §3, with “accordingly. […] Primary human neurons were treated with 25 μM DETA-NONOate (a NO donor) and at different time points of treatment, activities of N-SMase (FIG. 3D) and A-SMase (FIG. 3E) were monitored. ^ap<0.001 vs control (0 h).” for “accordingly.”

[3] = system: A-SMase; assay: A-SMase activity in vivo in the cortex after microinjection; set-up: species or system C57/BL6 mice; settings: pre-microinjection of 1 μg oligonucleotide 24 h before 1 μg fibrillar Aβ1-42
Description: (§4) Activities of SMase(s) were assayed as described by. Briefly, after treatment, the cells were washed with PBS, harvested in PBS, divided into two halves, and centrifuged. The fraction for N-SMase was resuspended in buffer A (100 mM Tris-HCl, pH 7.4, 0.1% Triton X-100, 1 mM EDTA, and protease inhibitors), and the cell suspension was sonicated and centrifuged at 500×g at 4° C. for 5 min. The supernatant was used as the enzyme source for N-SMase. The reaction mixture contained enzyme preparation in buffer A containing 5 nmol of [^14C] sphingomyelin, 5 nmol of phosphatidylserine, 5 mM dithiothreitol, and 5 mM MgC¾ in a final volume of 100 μl. Similarly, the fraction for A-SMase was resuspended in buffer B (100 mM sodium acetate, pH 5.0, 0.1% Triton X-100, and protease inhibitors). The cell suspension was sonicated and centrifuged. The supernatant was used as the source of A-SMase. The activity of A-SMase was measured in a 100-μl reaction mixture consisting of the enzyme preparation in buffer B and 5 nmol of [^14C] sphingomyelin. The enzyme reaction was initiated by the addition of 50 μl of substrate and stopped by the addition of 1.5 ml of chloroform:methanol (2:1, v/v) and 0.2 ml of water. After vortexing and phase separation, the aqueous phase was removed for counting.
(§5) Control mice received saline injection. At indicated time points, cortex was dissected out and divided into two halves—one half for measuring activities of N-SMase (FIG. 7B) and A-SMase (FIG. 7C) and the other for assaying ceramide (FIG. 7D). Control (saline—6 h) group served as 100%, and data from other groups were expressed as percentage of control. Results are mean+SD of five different mice (n=5). ^ap<0.05 vs saline—6 h.

[4] = system: iNOS, GFAP and CD11b; assay: Immunofluorescence of iNOS, GFAP and CD11b in the cortex of Aβ-microinjected mice; format: in vivo, C57/BL6 mice; settings: 1 μg oligonucleotide 24 h before Aβ; at both 6 h and 24 h of microinjection
Description: […], mice were perfused with 4% paraformaldehyde and their brains were processed for immunohistochemical studies. For double labeling of GFAP with iNOS, sections (6 μm) were incubated with polyclonal anti-GFAP (GFAP: 1000 dilution; Calbiochem) and anti-iNOS (iNOS: 1000 dilution; Calbiochem) for 24 h at 4° C. After three washes in PBST (15 min each), slides were further incubated with Cy5 and Cy2 (Jackson ImmunoResearch Laboratories, Inc.) secondary antibodies for 2 h at room temperature. For negative controls, a set of tissue sections was incubated under similar conditions without the primary antibodies. The samples were mounted and observed under a Bio-Rad MRC1024ES confocal laser scanning microscope.
After 6 h of Aβ microinjection, mice were perfused and double immunofluorescence for GFAP (green) and iNOS (red) (FIG. 8A) and CD 11b (green) and iNOS (red) (FIG. 8B) was performed.

[5] = system: neurons (NeuN-positive cells); assay: TUNEL/NeuN neuronal apoptosis in vivo in the cortex of Aβ-microinjected mice; settings: 1 μg oligonucleotide 24 h before Aβ; 24 h after final microinjection
[6] = system: N-SMase; assay: N-SMase activity in vivo in the cortex after microinjection; set-up: species or system C57/BL6 mice; settings: pre-microinjection of 1 μg oligonucleotide 24 h before 1 μg fibrillar Aβ1-42
Description: as §4, §5

[7] = target: T1, N-SMase (Homo sapiens, UniProt Q9NY59); assay: Assay of N-SMase activity in primary human neurons; format: cell-based
T1 construct: endogenous in cells; host or cells: primary human neurons
T1 sequence (Q9NY59 1-655): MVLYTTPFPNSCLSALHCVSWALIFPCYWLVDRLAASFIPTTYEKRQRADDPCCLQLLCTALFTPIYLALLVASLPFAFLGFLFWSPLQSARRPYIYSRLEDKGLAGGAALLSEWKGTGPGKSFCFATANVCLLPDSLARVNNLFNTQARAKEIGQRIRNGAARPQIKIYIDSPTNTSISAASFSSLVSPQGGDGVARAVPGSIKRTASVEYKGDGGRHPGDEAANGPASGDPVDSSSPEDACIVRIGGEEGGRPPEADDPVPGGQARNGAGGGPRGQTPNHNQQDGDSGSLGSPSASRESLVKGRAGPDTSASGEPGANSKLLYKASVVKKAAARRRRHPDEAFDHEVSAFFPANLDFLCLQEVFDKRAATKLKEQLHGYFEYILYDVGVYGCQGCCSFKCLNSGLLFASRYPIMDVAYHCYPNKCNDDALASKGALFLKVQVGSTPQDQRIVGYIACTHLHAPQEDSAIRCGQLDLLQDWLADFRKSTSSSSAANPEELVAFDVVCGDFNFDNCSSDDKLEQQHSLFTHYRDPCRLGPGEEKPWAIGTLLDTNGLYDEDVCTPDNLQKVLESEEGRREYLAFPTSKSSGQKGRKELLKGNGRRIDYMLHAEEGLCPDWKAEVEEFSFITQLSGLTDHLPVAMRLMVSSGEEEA
Description: as §4
In FIGS. 3A-3E, primary human astrocytes seeded in inserts were stimulated by the combination of Aβ and IL-Iβ as described above. After 24 h, media were removed and inserts were washed and placed on neurons that were pretreated with PTIO for 30 min. In FIG. 3A, after 1 h, activity of N-SMase was measured in total cell extracts of neurons as described above. After 18 h, neuronal viability was examined by the metabolism of MTT (FIG. 3B) and the release of LDH (FIG. 3C). Values obtained from the control group served as 100%, and data obtained in other groups were calculated as percent of control accordingly. Results are mean+S.D. of three different experiments. ^ap<0.001 vs control; ^bp<0.001 vs activated astrocytes. Primary human neurons were treated with 25 μM DETA-NONOate (a NO donor) and at different time points of treatment, activities of N-SMase (FIG. 3D) and A-SMase (FIG. 3E) were monitored. ^ap<0.001 vs control (0 h).

[8] = system: primary human astroglia; assay: NO synthesis (nitrite, Griess reagent) in primary human astroglia; format: cell-based; settings: astroglia preincubated 30 min with different concentrations of chemical inhibitor; nitrite after 24 h
Description: Synthesis of NO was determined by assay of culture supernatants for nitrite, a stable reaction product of NO with molecular oxygen, using Griess reagent as described.
After 24 h of stimulation, the concentration of nitrite was measured in supernatants (FIG. 4A) by Griess reagent. […] Cells were treated with ASO/ScO for 40 h followed by stimulation with the combination of fibrillar Aβ and IL-Iβ as above. After 6 h, the expression of iNOS mRNA was analyzed by both semi-quantitative RT-PCR (C) and quantitative real-time PCR (FIG. 4D). The expression of TNF-a, IL-6 and IL-Iβ mRNAs were analyzed by semi-quantitative RT-PCR (FIG. 4E). Results are mean±SD of three different experiments. ^ap<0.001 vs control; ^bp<0.001 vs (Aβ+IL-Iβ).

[9] = system: NF-κB; assay: EMSA of NF-κB DNA-binding activity in primary human astroglia; format: cell-based; settings: chemical inhibitor, different concentrations, 30 min preincubation; 1 h of stimulation
[10] = system: primary human astrocytes; assay: GFAP and iNOS double-labeling of primary human astrocytes stimulated with Aβ peptides; format: cell-based; settings: peptide stimulation for 24 h
Description: In FIG. 5A, primary astrocytes were stimulated with fibrillar Aβ1-42, oligomeric Aβ1-42 and reverse peptide Aβ42-1 for 24 h followed by double-labeling of GFAP and iNOS. In FIG. 5B, primary human astrocytes seeded in inserts were stimulated with a combination of I μM of oligomeric Aβ1-42 and 10 ng/ml of IL-Iβ in serum free media. […] After 6 h, neuronal apoptosis was monitored by TUNEL. In FIG. 5C, TUNEL-positive cells were counted manually in four different images of each of three coverslips by three individuals blinded to the experiment. Values obtained from the control group (1) served as 100%, and data obtained from other three groups i.e. the oligomeric Aβ-activated astrocytes (OAA) group (2), the ASO-OAA group (3), and the ScO-OAA group (4) was calculated as percent of control accordingly. Results are mean+S.D. of three different experiments. ^ap<0.001 vs control; ^bp<0.001 vs OAA.

[11] = neurons pretreated with oligonucleotide, 18 h of stimulation
[12] = neurons pretreated with PTIO for 30 min, after 18 h

**Q.** For “5′- CACGCGTCCGACGCCGCACGA -3′ (DNA, all phosphorothioate, methylation of C not given here) [ScO against N-SMase, ID; NO.: 13]”, which “activated astroglia-mediated loss of MTT metabolism” value [1, 11] is on record?
**A.** showed no effect

**Q.** And the “LDH release from neurons” value [2, 11]?
**A.** showed no effect

**Q.** “5′-CACGCGTCCGACGCCGCACGA-3′ (DNA CACGCGTCCGACGCCGCACGA; chemistry not given here) [mN-SMase ScO]” was tested. Which “activity of A-SMase in fibrillar Aβ-microinjected cortex” value [3] did it give?
**A.** did not influence

**Q.** And the “expression of iNOS, GFAP and CD11b in vivo in the cortex of Aβ-microinjected mice” value [4]?
**A.** had no effect

**Q.** What about the “Aβ-induced apoptotic death in vivo in the cortex (TUNEL/NeuN)” value [5] of the same compound?
**A.** did not ameliorate

**Q.** What does the source list for “5′-CAGCGAGCCGGTCCACCAGCC-3′ (antisense CAGCGAGCCGGTCCACCAGCC; chemistry not given here) [mN-SMase ASO, ID; NO.: 16]”?
**A.** activity of A-SMase in fibrillar Aβ-microinjected cortex [3]: did not influence; expression of iNOS, GFAP and CD11b in vivo in the cortex of Aβ-microinjected mice [4]: dramatically reduced; Aβ-induced apoptotic death in vivo in the cortex (TUNEL/NeuN) [5]: blocked; Aβ1-42-induced activation of N-SMase in vivo in the cortex [6]: capable of suppressing

**Q.** With `NCCN(CCN)/[N+]([O-])=N/O` [DETA-NONOate] as the compound, how does the “activation of N-SMase by NO donor alone” value ([7]; primary human neurons, 25 μM, different time points) read?
**A.** markedly induced

**Q.** Which results are given for `O=C(/C=C/c1ccc(/C=C/C(=O)Nc2ccc(C3=NCCN3)cc2)cc1)Nc1ccc(C2=NCCN2)cc1` [GW4869]?
**A.** activity of N-SMase ([7]; activated astroglia-insulted human neurons, chemical inhibitors): strongly suppressed; (Aβ+IL-1β)-induced production of NO [8]: markedly suppressed; (Aβ+IL-1β)-induced DNA-binding activity of NF-κB [9]: markedly suppressed

**Q.** Which “ability of activated astrocytes to induce the activation of N-SMase” value ([7]; neurons pretreated with PTIO for 30 min, measured after 1 h) does the source give for `CC1(C)N([O])C(c2ccccc2)=[N+]([O-])C1(C)C` [PTIO] here?
**A.** reduced the ability

**Q.** And the “ability of activated astrocytes to decrease MTT metabolism” value [1, 12]?
**A.** reduced the ability

**Q.** And the “ability of activated astrocytes to increase the release of LDH” value [2, 12]?
**A.** reduced the ability

**Q.** With “oligomeric Aβ: Aβ1-42 prepared after incubation at 37° C. for 2 days” as the compound, how does the “astroglial iNOS protein and GFAP” value [10] read?
**A.** also induced iNOS and upregulated GFAP
